From the NIST ThermoML archive (doi:10.1007/s10765-013-1527-7)
Numbers after ± are expanded uncertainties.

Experiment: xn = mol fraction of the nth substance listed
Details: 303 K, 101 kPa, Liquid; for speed of sound: Linear variable-path acoustic interferometer; for mass density: Pycnometric method

CC(C)=O [acetone] + Cc1ccccc1
speed of sound [m/s]
Details	x1 = 0.135	x1 = 0.27	x1 = 0.331	x1 = 0.456	x1 = 0.51	x1 = 0.605	x1 = 0.745	x1 = 0.831	x1 = 0.937
Frequency=1 MHz	946 ± 2	–	–	–	–	–	–	–	–
Frequency=3 MHz	1040 ± 2	1032 ± 2	1020 ± 2	1000 ± 2	981 ± 2	965 ± 2	943 ± 2	–	1028 ± 2
Frequency=5 MHz	1150 ± 2	1130 ± 2	1102 ± 2	1080 ± 2	1040 ± 2	1010 ± 2	1000 ± 2	1150 ± 2	1230 ± 2

Details	mass density [kg/m3]
x1 = 0.135	850 ± 1
x1 = 0.27	840 ± 1
x1 = 0.331	836 ± 1
x1 = 0.456	827 ± 1
x1 = 0.51	823 ± 1
x1 = 0.605	817 ± 1
x1 = 0.745	807 ± 1
x1 = 0.831	800 ± 1
x1 = 0.937	793 ± 1
x1 = 1	789 ± 1

Cc1ccccc1 [toluene] + CC(C)=O
Details	mass density [kg/m3]
x2 = 0	860 ± 1
